Article PMC9928118, “Funneling modulatory peptide design with generative models: Discovery and characterization of disruptors of calcineurin protein-protein interactions” (PLOS Computational Biology, 2023)
Blank lines part the entries; values can stand above or below the sequence they belong to.

Assays:
GST-tagged Cn [1] = test: PEPperPRINT peptide microarray binding assay with GST-tagged Cn; details: max over the duplicate spots (Location on chip)
GST-tagged Cn [2] = test: as above
Summary of the method: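 Qualitative binding: peptides printed on a PEPperPRINT microarray were incubated overnight at 4 °C with 1 mg/ml GST-tagged Cn, then detected with Alexa-Fluor 647 anti-GST antibody. Log fluorescence was baseline-corrected, averaged over duplicate spots, Z-normalized and averaged across five repeats.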

[3] = GST-tagged Cn, mean over the duplicate spots (Location on chip)
[4] = GST-tagged Cn, max over the spots on the chip (two locations)
[5] = GST-tagged Cn, mean over the spots on the chip (two locations)
[6] = max over the spots listed under Location on chip
[7] = mean over the spots listed under Location on chip
[8] = max over the chip locations listed for the peptide (two spots)
[9] = mean over the chip locations listed for the peptide (two spots)
[10] = GST-tagged Cn, max over the chip spots listed under Location on chip
[11] = GST-tagged Cn, mean over the chip spots listed under Location on chip
[12] = GST-tagged Cn, max over the spots named in Location on chip
[13] = GST-tagged Cn, mean over the spots named in Location on chip

Chip Fluorescence (max) (GST-tagged Cn [1]): 2.544
Chip Fluorescence (mean) (GST-tagged Cn [2]; [3]): 0.5506
Sequence: ADEATPSIVVHVCELP [SeqRBMlowT_118]

Chip Fluorescence (max) (GST-tagged Cn [1]): 2.42
Chip Fluorescence (mean) (GST-tagged Cn [2]; [3]): 0.7456
Sequence: ADEAVPLIDIAMAEYP [SeqRBM_3950]

Sequence: ADETQPGIVVHVCELP [SeqRBMlowT_352]
Chip Fluorescence (max) (GST-tagged Cn [1]): 2.166
Chip Fluorescence (mean) (GST-tagged Cn [2]; [3]): 0.6468

Chip Fluorescence (max) (GST-tagged Cn [1]): 2.2
Chip Fluorescence (mean) (GST-tagged Cn [2]; [3]): 0.06577
Sequence: AEVGIVRFSRHPVAQD [Seqshuffled_9961]

Chip Fluorescence (max) (GST-tagged Cn [1]): 2.513
Chip Fluorescence (mean) (GST-tagged Cn [2]; [3]): -0.04845
Sequence: ASEANPEITVTPAELP [SeqRBMlowT_1250]

Chip Fluorescence (max) (GST-tagged Cn [2]; [4]): 1.081
Chip Fluorescence (mean) (GST-tagged Cn [2]; [5]): 0.5254
Sequence: TFWTNPQYRITLEDVD [SeqRBMlowT_4237]

Chip Fluorescence (max) (GST-tagged Cn [2]; [6]): 3.384
Chip Fluorescence (mean) (GST-tagged Cn [2]; [7]): 0.265
Sequence: TFWTNPQYRITLEEED [SeqRBMlowT_1109]

Chip Fluorescence (max) (GST-tagged Cn [2]; [8]): 5.53
Chip Fluorescence (mean) (GST-tagged Cn [2]; [9]): 0.9297
Sequence: TFWTNPQYRITLEELD [SeqRBMlowT_2291]

Chip Fluorescence (max) (GST-tagged Cn [2]; [4]): 1.104
Chip Fluorescence (mean) (GST-tagged Cn [2]; [5]): 0.3317
Sequence: TFWTNPQYRITLEEPD [SeqRBMlowT_212]

Chip Fluorescence (max) (GST-tagged Cn [2]; [10]): 0.8765
Chip Fluorescence (mean) (GST-tagged Cn [2]; [11]): 0.0532
Sequence: TFWTNPQYRITLEEVD [SeqRBMlowT_98]

Chip Fluorescence (max) (GST-tagged Cn [2]; [10]): 0.6928
Chip Fluorescence (mean) (GST-tagged Cn [2]; [11]): -1.3023
Sequence: TFWTNPQYRITLTDVD [SeqRBMlowT_7188]

Chip Fluorescence (max) (GST-tagged Cn [2]; [6]): 2.815
Chip Fluorescence (mean) (GST-tagged Cn [2]; [7]): 0.3496
Sequence: TFWTNPQYRITVTDAD [SeqRBMlowT_620]

Chip Fluorescence (max) (GST-tagged Cn [2]; [10]): 0.9083
Chip Fluorescence (mean) (GST-tagged Cn [2]; [11]): -0.5067
Sequence: TFWTNPQYRITVTDED [SeqRBMlowT_7478]

Chip Fluorescence (max) (GST-tagged Cn [2]; GST-tagged Cn, max over the chip locations): 0.2441
Chip Fluorescence (mean) (GST-tagged Cn [2]; GST-tagged Cn, mean over the chip locations): -1.026
Sequence: TFWTNPQYRITVTDPD [SeqRBMlowT_65]

Chip Fluorescence (max) (GST-tagged Cn [2]; [10]): 0.8889
Chip Fluorescence (mean) (GST-tagged Cn [2]; [11]): -0.4265
Sequence: TFWTNPQYRITVTEPD [SeqRBMlowT_7465]

Chip Fluorescence (max) (GST-tagged Cn [2]; [6]): 2.677
Chip Fluorescence (mean) (GST-tagged Cn [2]; [7]): 0.4774
Sequence: TFWTNPQYRLKIPDPD [SeqRBMlowT_280]

Chip Fluorescence (max) (GST-tagged Cn [2]; [10]): 0.5794
Chip Fluorescence (mean) (GST-tagged Cn [2]; [11]): -0.5687
Sequence: TFWTNPQYRLKIPQVD [SeqRBMlowT_9671]

Chip Fluorescence (max) (GST-tagged Cn [2]; [8]): 7.375
Chip Fluorescence (mean) (GST-tagged Cn [2]; [9]): 1.564
Sequence: TFWTNPQYRLKLEDPD [SeqRBMlowT_1296]

Chip Fluorescence (max) (GST-tagged Cn [2]; [8]): 6.02
Chip Fluorescence (mean) (GST-tagged Cn [2]; [9]): 1.294
Sequence: TFWTNPQYRLKLEDVD [SeqRBMlowT_929]

Chip Fluorescence (max) (GST-tagged Cn [2]; [4]): 1.092
Chip Fluorescence (mean) (GST-tagged Cn [2]; [5]): 0.4965
Sequence: TFWTNPQYRLKLEEVD [SeqRBMlowT_1143]

Chip Fluorescence (max) (GST-tagged Cn [2]; [8]): 4.428
Chip Fluorescence (mean) (GST-tagged Cn [2]; [9]): 0.5574
Sequence: TFWTNPQYRLKLLEED [SeqCAPN11_Tupaia_chinensis]

Chip Fluorescence (max) (GST-tagged Cn [2]; [6]): 3.3
Chip Fluorescence (mean) (GST-tagged Cn [2]; [7]): 1.547
Sequence: TFWTNPQYRLKVTDPD [SeqRBMlowT_5581]

Chip Fluorescence (max) (GST-tagged Cn [2]; [4]): 1.251
Chip Fluorescence (mean) (GST-tagged Cn [2]; [5]): -0.6992
Sequence: TFWTNPQYRLNIIDPD [SeqRBMlowT_94]

Chip Fluorescence (max) (GST-tagged Cn [2]; [4]): 1.0899
Chip Fluorescence (mean) (GST-tagged Cn [2]; [5]): -0.4347
Sequence: TFWTNPQYRLWIVSVD [SeqRBM_2615]

Chip Fluorescence (max) (GST-tagged Cn [2]; [8]): 5.3741
Chip Fluorescence (mean) (GST-tagged Cn [2]; [9]): 1.404
Sequence: TFWTNPQYRMVLDEDD [SeqRBM_7411]

Sequence: TFWTNPQYRVHVCDPD [SeqRBMlowT_293]
Chip Fluorescence (max) (GST-tagged Cn [2]; [12]): 1.378
Chip Fluorescence (mean) (GST-tagged Cn [2]; [13]): -0.7162

Chip Fluorescence (max) (GST-tagged Cn [2]; [4]): 1.2431
Chip Fluorescence (mean) (GST-tagged Cn [2]; [5]): -0.6745
Sequence: TFWTNPQYRVHVPDED [SeqRBMlowT_2927]

Chip Fluorescence (max) (GST-tagged Cn [2]; [12]): 1.52
Chip Fluorescence (mean) (GST-tagged Cn [2]; [13]): 0.4012
Sequence: TFWTNPQYRVKLEDPD [SeqRBMlowT_28]

Chip Fluorescence (max) (GST-tagged Cn [2]; [4]): 1.125
Chip Fluorescence (mean) (GST-tagged Cn [2]; [5]): -0.4829
Sequence: TFWTNPQYRVKLEEPD [SeqRBMlowT_2230]

Chip Fluorescence (max) (GST-tagged Cn [2]; [4]): 1.274
Chip Fluorescence (mean) (GST-tagged Cn [2]; [5]): 0.2599
Sequence: TFWTNPQYRVKVTEPD [SeqRBMlowT_7349]

Chip Fluorescence (max) (GST-tagged Cn [2]; [12]): 1.649
Chip Fluorescence (mean) (GST-tagged Cn [2]; [13]): 0.4883
Sequence: TFWTNPQYRVTVTDPD [SeqRBMlowT_615]

Chip Fluorescence (max) (GST-tagged Cn [2]; [12]): 1.679
Chip Fluorescence (mean) (GST-tagged Cn [2]; [13]): 0.2149
Sequence: TFWTNPQYTITLEEPD [SeqRBMlowT_2235]

Chip Fluorescence (max) (GST-tagged Cn [2]; [6]): 2.849
Chip Fluorescence (mean) (GST-tagged Cn [2]; [7]): 0.5944
Sequence: TFWTNPQYTITLEEVD [SeqRBMlowT_678]

Chip Fluorescence (max) (GST-tagged Cn [2]; [6]): 3.22
Chip Fluorescence (mean) (GST-tagged Cn [2]; [7]): 0.7373
Sequence: TFWTNPQYVITLEDPD [SeqRBMlowT_239]

Chip Fluorescence (max) (GST-tagged Cn [2]; [12]): 1.482
Chip Fluorescence (mean) (GST-tagged Cn [2]; [13]): 0.5155
Sequence: TFWTNPQYVITLEEPD [SeqRBMlowT_2279]

Chip Fluorescence (max) (GST-tagged Cn [2]; [10]): 0.3855
Chip Fluorescence (mean) (GST-tagged Cn [2]; [11]): -0.6772
Sequence: TFWTNPQYVITVTDPD [SeqRBMlowT_3207]

Chip Fluorescence (max) (GST-tagged Cn [2]; [10]): 0.9389
Chip Fluorescence (mean) (GST-tagged Cn [2]; [11]): 0.02031
Sequence: TFWTNPQYVVSLEEPD [SeqRBMlowT_5673]

Chip Fluorescence (max) (GST-tagged Cn [2]; [10]): 0.8817
Chip Fluorescence (mean) (GST-tagged Cn [2]; [11]): -0.07521
Sequence: TGTLCKSGMLVSTRMS [SeqRBM_1323]
